ChEMBL document CHEMBL3739349, “Cytotoxic Clerodane Diterpenoids from the Leaves of Casearia grewiifolia” (J Nat Prod, 2015)

Tests used:
KB = assay: Cytotoxicity against human KB cells assessed as growth inhibition after 72 hrs by neutral red staining based colorimetric assay; assay type: functional, cell-based
HepG2 = assay: Cytotoxicity against human HepG2 cells assessed as growth inhibition after 72 hrs by neutral red staining based colorimetric assay; assay type: functional, cell-based; settings: HepG2, 72 h
Lu1 = assay: Cytotoxicity against human Lu1 cells assessed as growth inhibition after 72 hrs by neutral red staining based colorimetric assay; assay type: functional, cell-based; settings: Lu1, 72 h
MCF7 = assay: Cytotoxicity against human MCF7 cells assessed as growth inhibition after 72 hrs by neutral red staining based colorimetric assay; assay type: functional, cell-based; settings: MCF7, 72 h
[1] = Cytotoxicity against mouse NIH/3T3 cells assessed as growth inhibition after 72 hrs by neutral red staining based colorimetric assay; assay type: cell-based; settings: NIH3T3, 72 h
[2] = Cytotoxicity against mouse NIH/3T3 cells assessed as growth inhibition at 100 uM after 72 hrs by neutral red staining based colorimetric assay; assay type: cell-based; settings: nih3t3, 72 h

Row | Compound | IC50 (KB) | IC50 (HepG2) | IC50 (Lu1) | IC50 (MCF7) | IC50 [1] | Activity [2]
1 | C=CC(=C)CC[C@]1(C)[C@H](C)[C@@H](OC(=O)/C=C/c2ccc(O)cc2)[C@H](O)[C@@]23C(=C[C@H](OC(=O)CCC)C[C@@H]12)[C@H](OC)O[C@H]3OC | 6.2 µM | 7 µM | > 10 µM | > 10 µM | > 10 µM | Non-toxic
2 | C=CC(=C)CC[C@]1(C)[C@H](C)[C@@H](OC(=O)/C=C/c2ccc(O)cc2)[C@H](O)[C@@]23C(=C[C@H](OC(=O)CC(C)C)C[C@@H]12)[C@H](OC)O[C@H]3OC(C)=O | > 10 µM | > 10 µM | > 10 µM | > 10 µM | > 10 µM | 
3 | C=CC(=C)CC[C@]1(C)[C@H](C)C[C@H](O)[C@@]23C(=C[C@H](OC(=O)CCC)C[C@@H]12)[C@@H](OC(C)=O)O[C@H]3OC(C)=O [CASEANIGRESCEN D] | 0.5 µM | 0.3 µM | 0.9 µM | 0.8 µM | 0.3 µM | 
4 | Cc1c2ccncc2c(C)c2c1[nH]c1ccccc12 [ELLIPTECINE] | 1.4 µM | 1.5 µM | 1.2 µM | 0.9 µM | 1.3 µM | 
